According to patent EP4707280A1, “1,4-CINEOLE DERIVATIVE AND INTERMEDIATE THEREOF, HERBICIDE CONTAINING SAID DERIVATIVE AS ACTIVE INGREDIENT, METHOD FOR USING HERBICIDE, AND METHOD FOR PREPARING AGROCHEMICAL COMPOSITION” (HOKKO CHEMICAL INDUSTRY CO., LTD., priority 2023, dated 2024):

Tests used:
Type in all cases: in vivo
Scirpus juncoides [1] = test: Test Example 2: herbicidal effect test by application during growth period of paddy rice; conditions: 120 g per 10 ares, applied seven days after sowing, flooded pots, 14 days after application; for inhibition at 1200 g/ha: Schoenoplectiella juncoides, read-out: weed inhibition rate
Method in brief: (§1)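 Paddy soil in flooded pots (water depth about 3 cm) was sown with weed seeds and kept in a glass greenhouse. Seven days after sowing, a diluted emulsifiable concentrate was applied by dropper at 120 g active ingredient per 10 ares. Weed inhibition was evaluated 14 days after application, in duplicate.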

[2] = tested on: Echinochloa crus-galli var. formosensis; test: as above; conditions: 120 g per 10 ares, applied seven days after sowing, flooded pots, 14 days after application; for inhibition at 1200 g/ha: Echinochloa crus-galli, read-out: weed inhibition rate
Method in brief: as §1

Digitaria ciliaris [3] = test: Test Example 3: herbicidal effect test by soil application in upland field; conditions: 120 g per 10 ares, sprayed one day after sowing, 14 days after application; for inhibition at 1200 g/ha: Digitaria ciliaris, read-out: weed inhibition rate
Method in brief: (§2)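 Pre-emergence test: seeds mixed into top 1 cm of alluvial loam upland soil in pots; emulsifiable concentrate diluted in water sprayed on soil one day after sowing at 100 L/10 a, 120 g a.i./10 a. Weed inhibition rate (%) scored at 14 days, in duplicate.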

Echinochloa crus-galli [4] = test: as above; conditions: 120 g per 10 ares, sprayed one day after sowing, 14 days after application; for inhibition at 1200 g/ha: Echinochloa crus-galli, read-out: weed inhibition rate
Method in brief: as §2

Scirpus juncoides [5] = test: Test Example 1: herbicidal effect test by soil application in paddy rice; conditions: 120 g active ingredient per 10 ares, applied immediately after sowing, flooded pots, 14 days after application; for pest or weed control at 1200 g/ha: Schoenoplectiella juncoides, soil, 336 h, read-out: weed inhibition rate
Method in brief: (§3)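 Soil-applied test under flooded paddy conditions (~3 cm water) in a glass greenhouse. Seeds were sown shallow (0–1 cm, 30 per species), then compound was dripped in as diluted emulsifiable concentrate at 120 g a.i./10 a.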

[6] = tested on: Echinochloa crus-galli var. formosensis; test: as above; conditions: 120 g active ingredient per 10 ares, applied immediately after sowing, flooded pots, 14 days after application; for pest or weed control at 1200 g/ha: Echinochloa crus-galli, soil, 336 h, read-out: weed inhibition rate
Method in brief: as §3

Digitaria ciliaris [7] = test: Test Example 4: herbicidal effect test by stem and leaf treatment in upland field; conditions: 120 g per 10 ares, sprayed seven days after sowing, upland soil, 14 days after application; for inhibition at 1200 g/ha: Digitaria ciliaris, read-out: weed inhibition rate
[8] = tested on: Echinochloa crus-galli var. formosensis; test: Test Example 5: herbicidal effect test by soil application in paddy rice (low dose); conditions: 7.5 g per 10 ares, applied immediately after sowing, flooded pots, 14 days after application; for inhibition at 75 g/ha: Echinochloa crus-galli, soil, 336 h, read-out: weed inhibition rate
Method in brief: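 Paddy-soil pots, weeds sown 0–1 cm deep and flooded to about 3 cm in a greenhouse. Emulsifiable concentrate diluted in water and dropped in right after sowing at 7.5 g active ingredient per 10 ares. Duplicates; effect scored 14 days after application.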

Echinochloa crus-galli [9] = test: Test Example 4: herbicidal effect test by stem and leaf treatment in upland field; conditions: 120 g per 10 ares, sprayed seven days after sowing, upland soil, 14 days after application; for inhibition at 1200 g/ha: Echinochloa crus-galli, read-out: weed inhibition rate
[10] = tested on: Echinochloa crus-galli var. formosensis; test: Test Example 6: herbicidal effect test by application during growth period of paddy rice (low dose); conditions: 7.5 g per 10 ares, applied seven days after sowing, flooded pots, 14 days after application; for inhibition at 75 g/ha: Echinochloa crus-galli, read-out: weed inhibition rate
Method in brief: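 Low-dose water application, 7.5 g a.i. per 10 ares, given by dropper into flooded pots (about 3 cm depth) 7 days after sowing of 30 weed seeds each at 0–1 cm. Evaluation of inhibition (%) took place 14 days later, duplicate per rate.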

Digitaria ciliaris [11] = test: Test Example 8: herbicidal effect test by stem and leaf treatment in upland field (low dose); conditions: 7.5 g per 10 ares, sprayed seven days after sowing, upland soil, 14 days after application; for inhibition at 75 g/ha: Digitaria ciliaris, read-out: weed inhibition rate
Echinochloa crus-galli [12] = test: as above; conditions: 7.5 g per 10 ares, sprayed seven days after sowing, upland soil, 14 days after application; for inhibition at 75 g/ha: Echinochloa crus-galli, read-out: weed inhibition rate
Digitaria ciliaris [13] = test: Test Example 7: herbicidal effect test by soil application in upland field (low dose); conditions: 7.5 g per 10 ares, sprayed one day after sowing, 14 days after application; for inhibition at 75 g/ha: Digitaria ciliaris, read-out: weed inhibition rate
Method in brief: (§4)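 Upland alluvial loam pots, seeds mixed into top 1 cm of soil; one day after sowing, diluted emulsifiable concentrate sprayed on soil at 100 L/10 a, giving 7.5 g active ingredient/10 a. Duplicate pots; weed inhibition rate (%) scored 14 days after application.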

Echinochloa crus-galli [14] = test: as above; conditions: 7.5 g per 10 ares, sprayed one day after sowing, 14 days after application; for inhibition at 75 g/ha: Echinochloa crus-galli, read-out: weed inhibition rate
Method in brief: as §4

CC(C)[C@]12C[C@@H](OCc3c(F)cccc3Cl)[C@](C)(C[C@@H]1I)O2 [1-780, (1R,2S,4S,5R)-5-[(2-chloro-6-fluoro-phenyl)methoxy]-2-iodo-1-isopropyl-4-methyl-7-oxabicyclo[2.2.1]heptane]
≥ 80%: inhibition at 1200 g/ha (Scirpus juncoides [1]) | inhibition at 1200 g/ha [2] | inhibition at 1200 g/ha (Digitaria ciliaris [3]) | inhibition at 1200 g/ha (Echinochloa crus-galli [4]) | pest or weed control at 1200 g/ha (Scirpus juncoides [5]) | pest or weed control at 1200 g/ha [6] | inhibition at 1200 g/ha (Digitaria ciliaris [7]) | inhibition at 75 g/ha [8] | inhibition at 1200 g/ha (Echinochloa crus-galli [9]) | inhibition at 75 g/ha [10] | inhibition at 75 g/ha (Digitaria ciliaris [11]) | inhibition at 75 g/ha (Echinochloa crus-galli [12]) | inhibition at 75 g/ha (Digitaria ciliaris [13]) | inhibition at 75 g/ha (Echinochloa crus-galli [14])

CC(C)[C@]12C[C@@H](OCc3ccccn3)[C@](C)(C[C@@H]1I)O2 [1-785, 2-[[(18,2R,4R,58)-5-iodo-4-isopropyl-1-methyl-7-oxabicyclo[2.2.1]heptan-2-yl]oxymethyl]pyridine]
≥ 80%: weed inhibition rate (Scirpus juncoides [1]) | weed inhibition rate [2] | weed inhibition rate (Digitaria ciliaris [3]) | weed inhibition rate (Echinochloa crus-galli [4]) | weed inhibition rate (Scirpus juncoides [5]) | weed inhibition rate [6] | weed inhibition rate (Digitaria ciliaris [7]) | weed inhibition rate [8] | weed inhibition rate (Echinochloa crus-galli [9]) | weed inhibition rate [10] | weed inhibition rate (Digitaria ciliaris [11]) | weed inhibition rate (Echinochloa crus-galli [12]) | weed inhibition rate (Digitaria ciliaris [13]) | weed inhibition rate (Echinochloa crus-galli [14])

CC(C)[C@]12C[C@@H](OCc3cccs3)[C@](C)(C[C@@H]1I)O2 [1-788, (1R,2S,4S,5R)-2-iodo-1-isopropyl-4-methyl-5-(2-thienylmethoxy)-7-oxabicyclo[2.2.1]heptane]
≥ 80%: inhibition at 1200 g/ha (Scirpus juncoides [1]) | inhibition at 1200 g/ha [2] | inhibition at 1200 g/ha (Digitaria ciliaris [3]) | inhibition at 1200 g/ha (Echinochloa crus-galli [4]) | pest or weed control at 1200 g/ha (Scirpus juncoides [5]) | pest or weed control at 1200 g/ha [6] | inhibition at 1200 g/ha (Digitaria ciliaris [7]) | inhibition at 75 g/ha [8] | inhibition at 1200 g/ha (Echinochloa crus-galli [9]) | inhibition at 75 g/ha [10] | inhibition at 75 g/ha (Digitaria ciliaris [11]) | inhibition at 75 g/ha (Echinochloa crus-galli [12]) | inhibition at 75 g/ha (Digitaria ciliaris [13]) | inhibition at 75 g/ha (Echinochloa crus-galli [14])

CC(C)[C@]12C[C@@H](OCc3ccsc3)[C@](C)(C[C@@H]1I)O2 [1-789, (1R,2S,4S,5R)-2-iodo-1-isopropyl-4-methyl-5-(3-thienylmethoxy)-7-oxabicyclo[2.2.1]heptane]
≥ 80%: inhibition at 1200 g/ha (Scirpus juncoides [1]) | inhibition at 1200 g/ha [2] | inhibition at 1200 g/ha (Digitaria ciliaris [3]) | inhibition at 1200 g/ha (Echinochloa crus-galli [4]) | pest or weed control at 1200 g/ha (Scirpus juncoides [5]) | pest or weed control at 1200 g/ha [6] | inhibition at 1200 g/ha (Digitaria ciliaris [7]) | inhibition at 75 g/ha [8] | inhibition at 1200 g/ha (Echinochloa crus-galli [9]) | inhibition at 75 g/ha [10] | inhibition at 75 g/ha (Digitaria ciliaris [11]) | inhibition at 75 g/ha (Echinochloa crus-galli [12]) | inhibition at 75 g/ha (Digitaria ciliaris [13]) | inhibition at 75 g/ha (Echinochloa crus-galli [14])

CC(C)[C@@]12C[C@H](OCc3c(F)cccc3F)[C@@](C)(C[C@H]1I)O2 [1-1119, (1R,2S,4S,5R)-2-[(2,6-difluorophenyl)methoxy]-5-iodo-1-methyl-4-isopropyl-7-oxabicyclo[2.2.1]heptane]
≥ 80%: inhibition at 1200 g/ha (Scirpus juncoides [1]) | inhibition at 1200 g/ha [2] | inhibition at 1200 g/ha (Digitaria ciliaris [3]) | inhibition at 1200 g/ha (Echinochloa crus-galli [4]) | pest or weed control at 1200 g/ha (Scirpus juncoides [5]) | pest or weed control at 1200 g/ha [6] | inhibition at 1200 g/ha (Digitaria ciliaris [7]) | inhibition at 75 g/ha [8] | inhibition at 1200 g/ha (Echinochloa crus-galli [9]) | inhibition at 75 g/ha [10] | inhibition at 75 g/ha (Digitaria ciliaris [11]) | inhibition at 75 g/ha (Echinochloa crus-galli [12]) | inhibition at 75 g/ha (Digitaria ciliaris [13]) | inhibition at 75 g/ha (Echinochloa crus-galli [14])

CC(C)C12CC(OCc3ccccc3Cl)C(C)(CC1Cl)O2 (stereo not shown) [1-1292, 5-chloro-2-[(2-chlorophenyl)methoxy]-1-methyl-4-isopropyl-7-oxabicyclo[2.2.1]heptane]
≥ 80%: inhibition at 1200 g/ha (Scirpus juncoides [1]) | inhibition at 1200 g/ha [2] | inhibition at 1200 g/ha (Digitaria ciliaris [3]) | inhibition at 1200 g/ha (Echinochloa crus-galli [4]) | pest or weed control at 1200 g/ha (Scirpus juncoides [5]) | pest or weed control at 1200 g/ha [6] | inhibition at 1200 g/ha (Digitaria ciliaris [7]) | inhibition at 75 g/ha [8] | inhibition at 1200 g/ha (Echinochloa crus-galli [9]) | inhibition at 75 g/ha [10] | inhibition at 75 g/ha (Digitaria ciliaris [11]) | inhibition at 75 g/ha (Echinochloa crus-galli [12]) | inhibition at 75 g/ha (Digitaria ciliaris [13]) | inhibition at 75 g/ha (Echinochloa crus-galli [14])

CC(C)C12CC(OCc3ccccc3Br)C(C)(CC1Cl)O2 (stereo not shown) [1-1295, 2-[(2-bromophenyl)methoxy]-5-chloro-1-methyl-4-isopropyl-7-oxabicyclo[2.2.1]heptane]
≥ 80%: inhibition at 1200 g/ha (Scirpus juncoides [1]) | inhibition at 1200 g/ha [2] | inhibition at 1200 g/ha (Digitaria ciliaris [3]) | inhibition at 1200 g/ha (Echinochloa crus-galli [4]) | pest or weed control at 1200 g/ha (Scirpus juncoides [5]) | pest or weed control at 1200 g/ha [6] | inhibition at 1200 g/ha (Digitaria ciliaris [7]) | inhibition at 75 g/ha [8] | inhibition at 1200 g/ha (Echinochloa crus-galli [9]) | inhibition at 75 g/ha [10] | inhibition at 75 g/ha (Digitaria ciliaris [11]) | inhibition at 75 g/ha (Echinochloa crus-galli [12]) | inhibition at 75 g/ha (Digitaria ciliaris [13]) | inhibition at 75 g/ha (Echinochloa crus-galli [14])

CC(C)C12CC(OCc3ccccc3I)C(C)(CC1Cl)O2 (stereo not shown) [1-1298, 5-chloro-2-[(2-iodophenyl)methoxy]-1-methyl-4-isopropyl-7-oxabicyclo[2.2.1]heptane]
≥ 80%: inhibition at 1200 g/ha (Scirpus juncoides [1]) | inhibition at 1200 g/ha [2] | inhibition at 1200 g/ha (Digitaria ciliaris [3]) | inhibition at 1200 g/ha (Echinochloa crus-galli [4]) | pest or weed control at 1200 g/ha (Scirpus juncoides [5]) | pest or weed control at 1200 g/ha [6] | inhibition at 1200 g/ha (Digitaria ciliaris [7]) | inhibition at 75 g/ha [8] | inhibition at 1200 g/ha (Echinochloa crus-galli [9]) | inhibition at 75 g/ha [10] | inhibition at 75 g/ha (Digitaria ciliaris [11]) | inhibition at 75 g/ha (Echinochloa crus-galli [12]) | inhibition at 75 g/ha (Digitaria ciliaris [13]) | inhibition at 75 g/ha (Echinochloa crus-galli [14])
